# Patent US20170106109A1 (priority 2010, published 2017)
# What was measured:
# Escherichia coli = type: cell-based
# Ralstonia solanacearum [1] = type: cell-based
# Ralstonia solanacearum [2] = type: cell-based; remark: listed apart in the source
# [3] = system: λ phage DNA HindIII Marker
smiles,measurement,setting,value
"OO [Sample 3-3, hydrogen peroxide]",survival of Escherichia coli,Escherichia coli,a large amount of Escherichia coli survived
"OO [Sample 4-3, hydrogen peroxide]",survival of Ralstonia solanacearum,Ralstonia solanacearum [1],a large amount of Ralstonia solanacearum survived
"OO [Sample 6-3, hydrogen peroxide]",change of bacterial density of Ralstonia solanacearum with time,Ralstonia solanacearum [2],the bacterial density changed little
"OO [Sample 7-3, hydrogen peroxide]",DNA ladder on agarose electrophoresis,[3],the DNA ladder did not change
